Assay results from ChEMBL document CHEMBL1150548, “Dopamine autoreceptor agonists: computational studies, synthesis and biological investigations” (Bioorg Med Chem Lett, 1993).

Assays:
D(1A) dopamine receptor = D(1A) dopamine receptor (Rattus norvegicus, UniProt P18901); assay: Compound was evaluated for binding affinity to Dopamine receptor D1 labeled with [3H]-SCH- 23390 (0.3 nM) in rat striatal membranes; assay type: cell membranes, Striatum, Membrane
D(2) dopamine receptor [1] = target: T1, D(2) dopamine receptor (Rattus norvegicus, UniProt P61169); assay: Compound was evaluated for binding affinity to Dopamine receptor D2 labeled with [3H]spiroperidol (0.5 nM) in rat striatal membranes; assay type: cell membranes, Striatum, Membrane
D(2) dopamine receptor [2] = target: T1, D(2) dopamine receptor; assay: Compound was evaluated for binding affinity to Dopamine receptor D2 labeled with [3H]-SND 919 (0.5 nM) in rat striatal membranes; assay type: cell membranes, Striatum, Membrane
Mus musculus [3] = assay: Compound was evaluated for agonistic activity (DA receptor) by inhibition of GBL (gamma-butyralactone)-induced L-Dopa accumulation at a dose 10 mg/kg; assay type: functional
Mus musculus [4] = assay: Compound was evaluated for agonistic activity (DA receptor) by inhibition of GBL (gamma-butyralactone)-induced L-Dopa accumulation at a dose of 10 mg/Kg; assay type: functional

T1 sequence (P61169 whole entry): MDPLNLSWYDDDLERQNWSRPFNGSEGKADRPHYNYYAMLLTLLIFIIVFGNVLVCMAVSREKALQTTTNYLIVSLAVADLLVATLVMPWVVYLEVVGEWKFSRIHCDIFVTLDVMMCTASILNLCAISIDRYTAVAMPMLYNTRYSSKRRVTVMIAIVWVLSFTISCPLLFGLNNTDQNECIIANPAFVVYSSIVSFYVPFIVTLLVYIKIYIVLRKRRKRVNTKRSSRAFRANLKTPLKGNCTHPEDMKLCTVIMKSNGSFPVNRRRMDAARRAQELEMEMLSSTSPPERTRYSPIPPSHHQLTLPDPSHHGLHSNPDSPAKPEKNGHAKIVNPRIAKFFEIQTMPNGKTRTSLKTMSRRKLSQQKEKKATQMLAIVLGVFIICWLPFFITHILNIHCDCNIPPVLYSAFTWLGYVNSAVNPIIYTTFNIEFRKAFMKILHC
D(1A) dopamine receptor, sequence (P18901 whole entry): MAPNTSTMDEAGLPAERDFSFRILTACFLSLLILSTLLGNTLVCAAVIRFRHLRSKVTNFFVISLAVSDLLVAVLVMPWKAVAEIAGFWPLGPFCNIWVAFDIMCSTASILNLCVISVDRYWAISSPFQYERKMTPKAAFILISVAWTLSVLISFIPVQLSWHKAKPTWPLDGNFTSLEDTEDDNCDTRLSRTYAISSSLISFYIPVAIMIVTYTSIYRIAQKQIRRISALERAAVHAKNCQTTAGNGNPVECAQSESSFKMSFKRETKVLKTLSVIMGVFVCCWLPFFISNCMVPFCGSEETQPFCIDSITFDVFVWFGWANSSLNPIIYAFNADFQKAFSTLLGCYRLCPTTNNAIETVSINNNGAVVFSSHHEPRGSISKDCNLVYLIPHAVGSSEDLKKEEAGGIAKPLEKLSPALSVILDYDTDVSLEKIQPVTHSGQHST

SMILES	IC50 (D(1A) dopamine receptor) [µM]	IC50 (D(2) dopamine receptor [1]) [µM]	IC50 (D(2) dopamine receptor [2]) [µM]	inhibition in vivo at 10 mg/kg (Mus musculus [3]) [%]	inhibition in vivo at 10 mg/kg (Mus musculus [4]) [%]
CCCN(CCC)[C@H]1CCn2cccc2C1	14.5	7.1	0.03	62	
CCCNC1Cc2cccn3ncc(c23)C1 (centres undefined)	> 100	> 100	2.7		
CCCN(CCC)C1Cc2cccn3ncc(c23)C1 (centres undefined)	> 100	50.4	0.26		57
NC1Cc2cccn3ncc(c23)C1 (centres undefined)	> 100	> 100	2.8		
